Experimental data: article PMC9301920, “Physiologically Based Toxicokinetic Modeling of Bisphenols in Zebrafish (Danio rerio) Accounting for Variations in Metabolic Rates, Brain Distribution, and Liver Accumulation” (Environmental Science & Technology, 2022)

Test system: zebrafish
Test: PBTK parameter fitting (Nelder–Mead algorithm) to in vivo zebrafish data
Design: species or system zebrafish (Danio rerio)
Settings: fitted on brain BPZ concentrations of current study; used for all bisphenols
Source text: Ovaries and eggs were assumed to receive the same blood flow. The equation for the egg compartment was described as follows using the diffusion-limited equation previously described by Thompson and Beard[51] [drawing 4] 4 where dAegg/dt represents the rate of change of bisphenol over time in the egg compartment, Agon and Aegg represent the amount of compound in the gonads and egg, respectively, Vgon and Vegg are the volumes of the gonads and eggs, respectively, and Pgon and Pegg are the partition coefficients of the gonads to blood and egg to gonads.
Parameter fitting was done in R using the modFit function in the FME package with the Nelder–Mead algorithm.[53]
279For fitting, the model was run using the exposure scenarios of each fitting data set.
280parameters were fixed as presented in Tables S10-S14 with exception of the parameter for
281which fitting was performed. The outcome evaluated by fitting algorithm was the concentration
282over time in the same tissue as the experimental data. Outcomes used for fitting to measured
283experimental data were: concentration in brain for brain-blood partition coefficient,
284concentration in liver for liver-blood partition coefficient, concentration in eggs for egg-gonad
285partition coefficient and whole-body metabolite concentration for Ke bile and KBG of metabolites.
286For the liver, brain and egg partitioning, the range was set between 0.01 and 500 and the Nelder-
287Mead algorithm was run with initial estimates at 1, 5, 10, 50 and 500 in order to assure a global
288minimum was found. The fitted values returning the lowest squared sum of residuals were used
The GI lumen to GI tract diffusion rate (K u)

## Oc1ccc(C2(c3ccc(O)cc3)CCCCC2)cc1 [BPZ, bisphenol Z]
  Pbb (brain to blood partition coefficient): 0.42
